Results on 41 compounds are retold here after BindingDB's records for doi:10.1021/jm980414r (Glaxo Wellcome Research and Development, 1998).

The experiment can be described thus: -log concentration required to induce 50% maximum lipogenic activity against Peroxisome proliferator activated receptor gamma.

Consider `CN(CCOc1ccc(CC(Nc2ccsc2C(=O)c2ccccc2)C(=O)O)cc1)c1nc2ccccc2o1` (stereo unspecified), for which the concentration giving a half-maximal response (EC50) turned out to be 3.5 nM.
On to `CN(CCOc1ccc(CC(Nc2ccccc2C(=O)c2cccc(OCc3ccccc3)c2)C(=O)O)cc1)c1nc2ccccc2o1` (stereo unspecified), for which the EC50 turned out to be 891 nM.
For the compound `CCOC(=O)c1ccccc1NC(Cc1ccc(OCCc2nc(-c3ccccc3)oc2C)cc1)C(=O)O` (stereo unspecified), the EC50 came to 0.427 nM.
In the case of `Cc1oc(-c2ccccc2)nc1CCOc1ccc(CC(Nc2ccccc2C(=O)c2cccc(N)c2)C(=O)O)cc1` (stereo unspecified) it was 132 nM.
As to `CN(CCOc1ccc(CC(Nc2ccccc2C(=O)C2CCCCCC2)C(=O)O)cc1)c1nc2ccccc2o1` (stereo unspecified), the concentration for a half-maximal effect (EC50) turned out to be 66 nM.
To `COc1cccc(C(=O)c2ccccc2NC(Cc2ccc(OCCN(C)c3nc4ccccc4o3)cc2)C(=O)O)c1` (stereo unspecified) belongs 155 nM; to `Cc1oc(-c2ccccc2)nc1CCOc1ccc(CC(Nc2ccccc2C(=O)c2ccncc2)C(=O)O)cc1` (stereo unspecified), 107 nM.
`CN(CCOc1ccc(CC(Nc2sccc2C(=O)c2ccccc2)C(=O)O)cc1)c1nc2ccccc2o1` (stereo unspecified) came in with an EC50 of 95 nM.
To `CN(CCOc1ccc(CC(Nc2ccc(Cl)cc2C(=O)c2ccccc2)C(=O)O)cc1)c1nc2ccccc2o1` (stereo unspecified) belongs 178 nM.
Compound `CN(CCOc1ccc(CC(Nc2ccccc2C(=O)c2ccsc2)C(=O)O)cc1)c1nc2ccccc2o1` (stereo unspecified) came in with an EC50 of 72 nM.
On to `CCCOC(=O)c1ccccc1NC(Cc1ccc(OCCc2nc(-c3ccccc3)oc2C)cc1)C(=O)O` (stereo unspecified), for which a half-maximal effect (EC50) was put at 13 nM.
In the case of `Cc1oc(-c2ccccc2)nc1CCOc1ccc(CC(Nc2ccccc2C(=O)O)C(=O)O)cc1` (stereo unspecified), the EC50 was above 10000 nM.
To `Cc1oc(-c2ccccc2)nc1CCOc1ccc(CC(Nc2ccccc2C(=O)c2cccnc2)C(=O)O)cc1` (stereo unspecified) belongs 17 nM; to `Cc1oc(-c2ccccc2)nc1CCOc1ccc(CC(Nc2ccccc2C(=O)c2cccc(C(=O)O)c2)C(=O)O)cc1` (stereo unspecified), 1580 nM.
In the case of `CN(CCOc1ccc(CC(Nc2ccccc2C(=O)c2cccc(C(F)(F)F)c2)C(=O)O)cc1)c1nc2ccccc2o1` (stereo unspecified) it was 27 nM; in that of `CN(CCOc1ccc(CC(Nc2ccncc2C(=O)c2ccccc2)C(=O)O)cc1)c1nc2ccccc2o1` (stereo unspecified), 724 nM.
In the case of `Cc1oc(-c2ccccc2)nc1CCOc1ccc(CC(Nc2ccccc2C(=O)c2ccc(CN(C)C)cc2)C(=O)O)cc1` (stereo unspecified) it was 977 nM; in that of `CNC(=O)c1ccccc1NC(Cc1ccc(OCCc2nc(-c3ccccc3)oc2C)cc1)C(=O)O` (stereo unspecified), 363 nM.
On to `Cc1oc(-c2ccccc2)nc1CCOc1ccc(CC(Nc2ccccc2C(=O)c2cccc(CO)c2)C(=O)O)cc1` (stereo unspecified), for which the EC50 was 759 nM.
To `CN(CCOc1ccc(CC(Nc2ccccc2C(=O)c2cccc3ccccc23)C(=O)O)cc1)c1nc2ccccc2o1` (stereo unspecified) belongs 2.7 nM; to `Cc1oc(-c2ccccc2)nc1CCOc1ccc(CC(Nc2ccccc2C(=O)c2cccc(CN(C)C)c2)C(=O)O)cc1` (stereo unspecified), 1180 nM; to `CN(CCOc1ccc(CC(Nc2ccccc2C(=O)C2CCCC2)C(=O)O)cc1)c1nc2ccccc2o1` (stereo unspecified), 24 nM.
To `Cc1oc(-c2ccccc2)nc1CCOc1ccc(CC(Nc2ccccc2C(=O)OC(C)C)C(=O)O)cc1` (stereo unspecified) belongs 3.2 nM; to `CN(CCOc1ccc(CC(Nc2ccccc2C(=O)c2cccs2)C(=O)O)cc1)c1nc2ccccc2o1` (stereo unspecified), 78 nM.
In the case of `Cc1oc(-c2ccccc2)nc1CCOc1ccc(CC(Nc2ccccc2C(=O)N(C)C)C(=O)O)cc1` (stereo unspecified) it was above 1000 nM; in that of `Cc1oc(-c2ccccc2)nc1CCOc1ccc(C[C@@H](Nc2ccccc2C(=O)C2CCCCC2)C(=O)O)cc1`, 372 nM; in that of `CN(CCOc1ccc(CC(Nc2ccccc2C(=O)c2ccccc2C(F)(F)F)C(=O)O)cc1)c1nc2ccccc2o1` (stereo unspecified), 71 nM.
In turn, `Cc1ccccc1C(=O)c1ccccc1NC(Cc1ccc(OCCN(C)c2nc3ccccc3o2)cc1)C(=O)O` (stereo unspecified) showed an EC50 of 6.9 nM.
The compound `CN(CCOc1ccc(CC(Nc2ccccc2C(=O)c2ccc(-c3ccccc3)cc2)C(=O)O)cc1)c1nc2ccccc2o1` (stereo unspecified) yielded an EC50 of 339 nM.
Take `Cc1cccc(C(=O)c2ccccc2NC(Cc2ccc(OCCN(C)c3nc4ccccc4o3)cc2)C(=O)O)c1` (stereo unspecified): the EC50 was 14 nM.
In the case of `CN(CCOc1ccc(CC(Nc2ccccc2C(=O)c2ccccc2)C(=O)O)cc1)c1nc2ccccc2o1` (stereo unspecified), the EC50 was found to be 4.4 nM.
To `Cc1ccc(NC(Cc2ccc(OCCN(C)c3nc4ccccc4o3)cc2)C(=O)O)c(C(=O)c2ccccc2)c1` (stereo unspecified) belongs 63 nM.
In the case of `Cc1oc(-c2ccccc2)nc1CCOc1ccc(CC(Nc2ccccc2C(=O)c2ccc(CO)cc2)C(=O)O)cc1` (stereo unspecified) it was 174 nM; in that of `CN(CCOc1ccc(CC(Nc2ccccc2C(=O)c2ccc(OCc3ccccc3)cc2)C(=O)O)cc1)c1nc2ccccc2o1` (stereo unspecified), 676 nM.
The compound `CN(CCOc1ccc(CC(Nc2cscc2C(=O)c2ccccc2)C(=O)O)cc1)c1nc2ccccc2o1` (stereo unspecified) registered an EC50 of 1.4 nM.
Compound `CN(CCOc1ccc(C[C@H](Nc2ccccc2C(=O)C2CCCCC2)C(=O)O)cc1)c1nc2ccccc2o1` had an EC50 of 8.5 nM.
In the case of `COc1ccc(C(=O)c2ccccc2NC(Cc2ccc(OCCN(C)c3nc4ccccc4o3)cc2)C(=O)O)cc1` (stereo unspecified) it was 95 nM.
To `Cc1ccc(C(=O)c2ccccc2NC(Cc2ccc(OCCN(C)c3nc4ccccc4o3)cc2)C(=O)O)cc1` (stereo unspecified) belongs 12 nM; to `CSc1nc(NC(Cc2ccc(OCCN(C)c3nc4ccccc4o3)cc2)C(=O)O)c(C(=O)c2ccccc2)s1` (stereo unspecified), below 2510 nM.
To `CN(CCOc1ccc(CC(Nc2ccccc2C(=O)c2ccc(C(F)(F)F)cc2)C(=O)O)cc1)c1nc2ccccc2o1` (stereo unspecified) belongs 69 nM; to `COc1ccccc1C(=O)c1ccccc1NC(Cc1ccc(OCCN(C)c2nc3ccccc3o2)cc1)C(=O)O` (stereo unspecified), 501 nM.
